{"source": "patent US11826365B2", "about": "“Type II raf kinase inhibitors” (Dana-Farber Cancer Institute, Inc., priority 2009, dated 2023)", "type_in_all_cases": "cell-based", "key": {"JNK": {"test_system": "JNK", "test": "Phosphorylation analysis by western blotting, phospho-JNK after anisomycin stimulation", "settings": "following stimulation with anisomycin; western blot, phospho-JNK (Thr183/Tyr185)", "method": "(§1) The phosphorylation levels of Erk, JNK, and p38 were assessed by western blotting using phospho-specific antibodies (results not shown). In brief, cells were treated for 15 min with/without 2 uM anicomycin to stimulate the MAPK-signaling pathways. Next various concentrations of the test compound were added to treat cells for 90 minutes. Cells lysed in lysis buffer (50 mM Tris-HCl pH 7.4, 150 mM NaCl, 5 mM EDTA, 1 mM EGTA, 1% Nonidet P-40, 2 mM Na3VO4 and protease inhibitor cocktail (Roche)). Equal amounts of lysate ([…]) were subjected to SDS-PAGE followed by immunoblotting with phospho-specific antibodies—anti-phospho-Erk (Thr202/Tyr204), anti-phospho-JNK (Thr183/Tyr185) and anti-phospho-p38 (Thr180/Tyr182) antibodies—or antibodies recognizing Erk (Cell signaling). Proteins were detected by enhanced chemioluminescence (ECL-plus; Amersham), following the manufacturer's guidelines."}, "p38": {"test_system": "p38", "test": "Phosphorylation analysis by western blotting, phospho-p38 after anisomycin stimulation", "settings": "following stimulation with anisomycin; western blot, phospho-p38 (Thr180/Tyr182)", "method": "as §1"}, "Erk1/2": {"test_system": "Erk1/2", "test": "Phosphorylation analysis by western blotting, phospho-Erk after anisomycin stimulation", "settings": "following stimulation with anisomycin; western blot, phospho-Erk (Thr202/Tyr204)", "method": "as §1"}, "[1]": {"target": "T1, B-RAF 'gatekeeper mutation' T529I (Homo sapiens, UniProt P15056, T529I)", "T1 construct": "expressed in transfected cells; host or cells: Ba/F3 (murine pro-B) cells transformed with B-RAF", "T1 sequence (P15056 whole entry T529I)": "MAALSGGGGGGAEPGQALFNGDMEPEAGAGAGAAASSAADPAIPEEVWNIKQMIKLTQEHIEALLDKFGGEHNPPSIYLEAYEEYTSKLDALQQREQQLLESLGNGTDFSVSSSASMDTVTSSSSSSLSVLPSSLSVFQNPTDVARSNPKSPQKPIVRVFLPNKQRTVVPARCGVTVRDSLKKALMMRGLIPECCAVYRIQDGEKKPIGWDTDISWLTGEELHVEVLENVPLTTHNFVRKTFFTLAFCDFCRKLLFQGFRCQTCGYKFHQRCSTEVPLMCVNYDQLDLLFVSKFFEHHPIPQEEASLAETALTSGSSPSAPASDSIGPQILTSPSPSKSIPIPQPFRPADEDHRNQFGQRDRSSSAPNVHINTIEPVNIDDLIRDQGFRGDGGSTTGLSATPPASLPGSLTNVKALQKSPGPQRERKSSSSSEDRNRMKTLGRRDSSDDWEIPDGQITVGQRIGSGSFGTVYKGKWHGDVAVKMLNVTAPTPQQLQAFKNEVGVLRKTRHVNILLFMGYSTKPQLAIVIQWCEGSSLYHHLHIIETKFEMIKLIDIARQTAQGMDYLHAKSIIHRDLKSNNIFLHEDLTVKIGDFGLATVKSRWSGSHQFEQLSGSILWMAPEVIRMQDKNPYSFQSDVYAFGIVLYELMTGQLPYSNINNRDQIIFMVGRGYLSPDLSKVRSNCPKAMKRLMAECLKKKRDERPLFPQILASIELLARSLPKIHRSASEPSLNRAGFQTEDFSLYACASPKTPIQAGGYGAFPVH", "test": "Suppression of B-RAF gatekeeper mutation T529I (FIGS. 18A to 18B)", "settings": "T529I confers resistance in other B-RAF inhibitors", "method": "Ba/F3 cells and B-RAF transformed Ba/F3 cells were maintained in RPMI 1640 medium supplemented with 10% fetal bovine serum (FBS) in a 5% CO2 incubator at 37° C. The untransformed Ba/F3 cells are supplemented with 1.0 ng/ml of recombinant IL3. 4000 Ba/F3 cells per well were plated in quadruplicate in 384-well plates, in RPMI 1640 media supplemented with 10% FBS and various concentrations of IL3. After 48 h of growth, Brightglo reagent (Promega, WI) was added to each well. Luminescent was read as counts/sec. XL-fit was used for IC50 analysis."}}, "data": [{"smiles": "CCN1CCN(Cc2ccc(NC(=O)c3ccc(C)c(/C=C/c4cnc5[nH]ccc5c4OC)c3)cc2C(F)(F)F)CC1", "note": "[XI-1, (E)-N-(4-((4-ethylpiperazin-1-yl)methyl)-3-(trifluoromethyl)phenyl)-3-(2-(4-methoxy-1H-pyrrolo[2,3-b]pyridin-5-yl)vinyl)-4-methylbenzamide]", "values": [{"measurement": "inhibition of phosphorylation of JNK", "setting": "JNK", "value": "inhibits"}, {"measurement": "inhibition of phosphorylation of p38", "setting": "p38", "value": "inhibits"}, {"measurement": "inhibition of phosphorylation of Erk1/2", "setting": "Erk1/2", "value": "not"}, {"measurement": "suppression of B-RAF gatekeeper mutation T529I", "setting": "[1]", "value": "can suppress"}]}]}
